A short description of the data set: Affinity capillary electrophoresis (ACE), pH 7.4. To be noted: 30 mM phosphate buffer pH 7.4, 25 °C, 15 kV. The source says:
To assess the CD complex formation capability of the five cathinone derivatives, we devised a screening ACE method tailored to closely mimic physiological conditions. In a preliminary study, the ACE conditions were optimized regarding the type, pH, and concentration of the background electrolyte, the applied voltage, and the injection parameters. […] In order to avoid high Joule heat generation, sufficiently low voltage should be used; thus, after registering the Ohm plot (I-U plot), it was set to 15 kV. Throughout our ACE measurements, corrections for viscosity and ionic strength were systematically implemented to ensure precise determination of complex stability constants.
The CE experiments were performed on a HP ^3DCE and on an Agilent 7100 instrument (Agilent Technologies, Waldbronn, Germany) equipped with a photodiode array detector and the Chemstation software for data handling. Untreated fused silica capillaries (50 µm id, 48.5 cm total, 40 cm effective length) were purchased from Agilent. Conditioning of new capillary was conducted by flushing with 1 M NaOH followed by 0.1 M NaOH and water for 30 min each. Prior to all runs, the capillary was preconditioned by rinsing with BGE (2 min). The temperature of the capillary was set to 25 °C. UV detection was performed at 215 nm, and 15–25 kV voltage was applied. Samples were injected hydrodynamically (150 mbar·sec, optimized in the 50–500 mbar·sec range). The CE-pH measurements were carried out applying 25 kV voltage and 200 mbar·sec injection.
The background electrolyte of the CE-pH measurements contained 25 mM Na2HPO4 and 25 mM Na2B4O7, and the appropriate pH was adjusted with hydrochloric acid. During the ACE measurements, 30 mM phosphate buffer pH 7.4 (30 mM Na2HPO4—NaOH) was used. The running buffer was 20 mM acetic acid adjusting with 1 M Tris the pH to 4.5 during the chiral screening experiments. The BGEs contained CDs at various concentrations (0.25–20 mM) in the ACE experiments and 1-5-10 mM in the chiral method optimization experiments.
Stock solutions of each cathinone analog (mephedrone, flephedrone, 4-MEC, butylone, and MDPV) were prepared separately in methanol (1 mg/ml), and appropriate dilutions with water were used to prepare sample solutions for the CE-pH titration and for the ACE studies applying DMSO as EOF marker, while their mixture was used during the chiral separation studies.
The simplest way to determine the mobility is from the migration times (tmax) read from the electropherograms from which the apparent mobility could be calculated, but more accurate mobility values could be obtained by the determination with the Haarhoff–van der Linde (HVL) function based on Equation (2). (2) HVLδ(t;a0,a1,a2,a3δ)=a0/a2a3δ2πexp[−1/2(t−a1/a2)^2]/1/exp(a3δ)−1+1/2[1+erf(t−a1/2a2)] where a0 is the area of the HVL function, a1 is the position of the Gaussian component, a2 is the standard deviation of the Gaussian component, and a3δ is the peak shape distortion. The application of the HVL function is necessary in the case of accurate ACE measurements because, in several cases, the peaks are distorted due to the complex formation, which makes reading the migration times and calculating the mobility more difficult and imprecise.
The most popular technique for quantifying the analyte–ligand interaction with CE is mobility shift ACE.
For the compound `CO[C@H]1[C@H]2O[C@H]3[C@H](OS(=O)(=O)O)[C@@H](OC)[C@@H](O[C@H]4[C@H](OS(=O)(=O)O)[C@@H](OC)[C@@H](O[C@H]5[C@H](OS(=O)(=O)O)[C@@H](OC)[C@@H](O[C@H]6[C@H](OS(=O)(=O)O)[C@@H](OC)[C@@H](O[C@H]7[C@H](OS(=O)(=O)O)[C@@H](OC)[C@@H](O[C@H]8[C@H](OS(=O)(=O)O)[C@@H](OC)[C@@H](O[C@@H]([C@@H]1OS(=O)(=O)O)[C@@H](COS(=O)(=O)O)O2)O[C@@H]8COS(=O)(=O)O)O[C@@H]7COS(=O)(=O)O)O[C@@H]6COS(=O)(=O)O)O[C@@H]5COS(=O)(=O)O)O[C@@H]4COS(=O)(=O)O)O[C@@H]3COS(=O)(=O)O` [HMDiSu-β-CD, heptakis-(2-O-methyl, 3,6-O-disulfo)-β-CD], the “4-MEC–CD complex stability constant, Kstab/Kstab1 (unresolved or first migrating enantiomer)” value was 260 ± 10 M⁻¹; the “Butylone–CD complex stability constant, Kstab/Kstab1 (unresolved or first migrating enantiomer)” value is 265 ± 20 M⁻¹; the “MDPV–CD complex stability constant, Kstab/Kstab1 (unresolved or first migrating enantiomer)” value was 165 ± 25 M⁻¹.

On to succinyl-β-CD [Succ-β-CD (DS~4)], for which the “Butylone–CD complex stability constant, Kstab2 (second migrating enantiomer)” value was 30,500 ± 5300 M^−1; the “Butylone–CD complex stability constant, Kstab/Kstab1 (unresolved or first migrating enantiomer)” value was 13,500 ± 1350 M^−1; the “MDPV–CD complex stability constant, Kstab2 (second migrating enantiomer)” value was 10,600 ± 35 M^−1; the “MDPV–CD complex stability constant, Kstab/Kstab1 (unresolved or first migrating enantiomer)” value is 12,100 ± 2150 M^−1.

Regarding carboxymethylated-β-CD [CM-β-CD], the “4-MEC–CD complex stability constant, Kstab2 (second migrating enantiomer)” value was found to be 725 ± 45 M⁻¹; the “4-MEC–CD complex stability constant, Kstab/Kstab1 (unresolved or first migrating enantiomer)” value is 620 ± 40 M⁻¹; the “Flephedrone–CD complex stability constant, Kstab2 (second migrating enantiomer)” value is 225 ± 10 M⁻¹; the “Flephedrone–CD complex stability constant, Kstab/Kstab1 (unresolved or first migrating enantiomer)” value amounted to 190 ± 10 M⁻¹. The “Mephedrone–CD complex stability constant, Kstab2 (second migrating enantiomer)” value was 615 ± 25 M⁻¹ and the “Mephedrone–CD complex stability constant, Kstab/Kstab1 (unresolved or first migrating enantiomer)” value stood at 610 ± 30 M⁻¹.

Consider carboxymethylated-γ-CD [CM-γ-CD], for which the “4-MEC–CD complex stability constant, Kstab2 (second migrating enantiomer)” value came out at 70 ± 10 M⁻¹; the “4-MEC–CD complex stability constant, Kstab/Kstab1 (unresolved or first migrating enantiomer)” value was found to be 65 ± 8 M⁻¹; the “Butylone–CD complex stability constant, Kstab2 (second migrating enantiomer)” value was 170 ± 10 M⁻¹; the “Butylone–CD complex stability constant, Kstab/Kstab1 (unresolved or first migrating enantiomer)” value is 140 ± 10 M⁻¹. The “Flephedrone–CD complex stability constant, Kstab2 (second migrating enantiomer)” value stood at 30 ± 5 M⁻¹; the “Flephedrone–CD complex stability constant, Kstab/Kstab1 (unresolved or first migrating enantiomer)” value came out at 50 ± 9 M⁻¹; the “MDPV–CD complex stability constant, Kstab2 (second migrating enantiomer)” value turned out to be 170 ± 17 M⁻¹; the “MDPV–CD complex stability constant, Kstab/Kstab1 (unresolved or first migrating enantiomer)” value was determined as 160 ± 15 M⁻¹. Besides, the “Mephedrone–CD complex stability constant, Kstab2 (second migrating enantiomer)” value was determined as 60 ± 10 M⁻¹ and the “Mephedrone–CD complex stability constant, Kstab/Kstab1 (unresolved or first migrating enantiomer)” value was found to be 50 ± 8 M⁻¹.

As to “sulfo(2-hydroxy)propylated-β-CD [SHP-β-CD]”, the “4-MEC–CD complex stability constant, Kstab2 (second migrating enantiomer)” value is 300 ± 25 M⁻¹; the “4-MEC–CD complex stability constant, Kstab/Kstab1 (unresolved or first migrating enantiomer)” value came to 250 ± 20 M⁻¹; the “Butylone–CD complex stability constant, Kstab/Kstab1 (unresolved or first migrating enantiomer)” value was found to be 620 ± 35 M⁻¹; the “Flephedrone–CD complex stability constant, Kstab/Kstab1 (unresolved or first migrating enantiomer)” value came out at 60 ± 10 M⁻¹. The “MDPV–CD complex stability constant, Kstab2 (second migrating enantiomer)” value stood at 910 ± 55 M⁻¹; the “MDPV–CD complex stability constant, Kstab/Kstab1 (unresolved or first migrating enantiomer)” value was 800 ± 65 M⁻¹; the “Mephedrone–CD complex stability constant, Kstab2 (second migrating enantiomer)” value was determined as 300 ± 20 M⁻¹; the “Mephedrone–CD complex stability constant, Kstab/Kstab1 (unresolved or first migrating enantiomer)” value was found to be 230 ± 20 M⁻¹.

Regarding phosphated-β-CD [Phos-β-CD], the “Flephedrone–CD complex stability constant, Kstab2 (second migrating enantiomer)” value came out at 440 ± 35 M⁻¹; the “Flephedrone–CD complex stability constant, Kstab/Kstab1 (unresolved or first migrating enantiomer)” value came out at 330 ± 20 M⁻¹; the “MDPV–CD complex stability constant, Kstab/Kstab1 (unresolved or first migrating enantiomer)” value turned out to be 870 ± 60 M⁻¹.

sulfobutyl-ether-α-CD [SBE-α-CD]: the “4-MEC–CD complex stability constant, Kstab2 (second migrating enantiomer)” value was 610 ± 55 M⁻¹; the “4-MEC–CD complex stability constant, Kstab/Kstab1 (unresolved or first migrating enantiomer)” value was 450 ± 45 M⁻¹; the “Butylone–CD complex stability constant, Kstab2 (second migrating enantiomer)” value was 530 ± 100 M⁻¹; the “Butylone–CD complex stability constant, Kstab/Kstab1 (unresolved or first migrating enantiomer)” value was 220 ± 20 M⁻¹. Besides, the “MDPV–CD complex stability constant, Kstab2 (second migrating enantiomer)” value worked out at 550 ± 90 M⁻¹; the “MDPV–CD complex stability constant, Kstab/Kstab1 (unresolved or first migrating enantiomer)” value stood at 580 ± 80 M⁻¹; the “Mephedrone–CD complex stability constant, Kstab2 (second migrating enantiomer)” value came out at 565 ± 80 M⁻¹; the “Mephedrone–CD complex stability constant, Kstab/Kstab1 (unresolved or first migrating enantiomer)” value is 430 ± 70 M⁻¹.

Consider `NC[C@H]1O[C@@H]2O[C@H]3[C@H](O)[C@@H](O)[C@@H](O[C@H]4[C@H](O)[C@@H](O)[C@@H](O[C@H]5[C@H](O)[C@@H](O)[C@@H](O[C@H]6[C@H](O)[C@@H](O)[C@@H](O[C@H]7[C@H](O)[C@@H](O)[C@@H](O[C@H]8[C@H](O)[C@@H](O)[C@@H](O[C@H]1[C@H](O)[C@H]2O)O[C@@H]8CO)O[C@@H]7CO)O[C@@H]6CO)O[C@@H]5CO)O[C@@H]4CO)O[C@@H]3CO` [MA-β-CD, mono-(6-N-amino-6-deoxy)-β-CD], for which the “4-MEC–CD complex stability constant, Kstab/Kstab1 (unresolved or first migrating enantiomer)” value was found to be 180 ± 40 M⁻¹; the “Butylone–CD complex stability constant, Kstab2 (second migrating enantiomer)” value stood at 340 ± 50 M⁻¹; the “Butylone–CD complex stability constant, Kstab/Kstab1 (unresolved or first migrating enantiomer)” value worked out at 140 ± 25 M⁻¹; the “Flephedrone–CD complex stability constant, Kstab/Kstab1 (unresolved or first migrating enantiomer)” value was found to be 425 ± 80 M⁻¹. In addition, the “MDPV–CD complex stability constant, Kstab2 (second migrating enantiomer)” value came out at 200 ± 30 M⁻¹; the “MDPV–CD complex stability constant, Kstab/Kstab1 (unresolved or first migrating enantiomer)” value was determined as 350 ± 60 M⁻¹; the “Mephedrone–CD complex stability constant, Kstab/Kstab1 (unresolved or first migrating enantiomer)” value came out at 225 ± 35 M⁻¹.

Take `CO[C@@H]1[C@@H](OC)[C@H]2O[C@H]3[C@H](OC)[C@@H](OC)[C@@H](O[C@H]4[C@H](OC)[C@@H](OC)[C@@H](O[C@H]5[C@H](OC)[C@@H](OC)[C@@H](O[C@H]6[C@H](OC)[C@@H](OC)[C@@H](O[C@H]7[C@H](OC)[C@@H](OC)[C@@H](O[C@H]8[C@H](OC)[C@@H](OC)[C@@H](O[C@H]9[C@H](OC)[C@@H](OC)[C@@H](O[C@@H]1[C@@H](COS(=O)(=O)O)O2)O[C@@H]9COS(=O)(=O)O)O[C@@H]8COS(=O)(=O)O)O[C@@H]7COS(=O)(=O)O)O[C@@H]6COS(=O)(=O)O)O[C@@H]5COS(=O)(=O)O)O[C@@H]4COS(=O)(=O)O)O[C@@H]3COS(=O)(=O)O` [ODMS-γ-CD, octakis-(2,3-O-dimethyl, 6-O-sulfo)-γ-CD]: the “4-MEC–CD complex stability constant, Kstab2 (second migrating enantiomer)” value turned out to be 125 ± 20 M⁻¹; the “4-MEC–CD complex stability constant, Kstab/Kstab1 (unresolved or first migrating enantiomer)” value turned out to be 110 ± 15 M⁻¹; the “Butylone–CD complex stability constant, Kstab2 (second migrating enantiomer)” value amounted to 165 ± 25 M⁻¹; the “Butylone–CD complex stability constant, Kstab/Kstab1 (unresolved or first migrating enantiomer)” value was 145 ± 15 M⁻¹. For the same compound, the “Flephedrone–CD complex stability constant, Kstab2 (second migrating enantiomer)” value was 70 ± 10 M⁻¹; the “Flephedrone–CD complex stability constant, Kstab/Kstab1 (unresolved or first migrating enantiomer)” value worked out at 90 ± 20 M⁻¹; the “MDPV–CD complex stability constant, Kstab2 (second migrating enantiomer)” value was determined as 110 ± 45 M⁻¹; the “MDPV–CD complex stability constant, Kstab/Kstab1 (unresolved or first migrating enantiomer)” value is 105 ± 7 M⁻¹. Also, the “Mephedrone–CD complex stability constant, Kstab2 (second migrating enantiomer)” value turned out to be 140 ± 20 M⁻¹ and the “Mephedrone–CD complex stability constant, Kstab/Kstab1 (unresolved or first migrating enantiomer)” value worked out at 200 ± 35 M⁻¹.

Regarding `OC[C@H]1O[C@@H]2O[C@H]3[C@H](O)[C@@H](O)[C@@H](O[C@H]4[C@H](O)[C@@H](O)[C@@H](O[C@H]5[C@H](O)[C@@H](O)[C@@H](O[C@H]6[C@H](O)[C@@H](O)[C@@H](O[C@H]7[C@H](O)[C@@H](O)[C@@H](O[C@H]8[C@H](O)[C@@H](O)[C@@H](O[C@H]1[C@H](O)[C@H]2O)O[C@@H]8CO)O[C@@H]7CO)O[C@@H]6CO)O[C@@H]5CN1CCCC1)O[C@@H]4CO)O[C@@H]3CO` [PYR-β-CD, 6-monodeoxy-6-pyrrolidine-β-CD], the “4-MEC–CD complex stability constant, Kstab/Kstab1 (unresolved or first migrating enantiomer)” value stood at 215 ± 30 M⁻¹; the “Flephedrone–CD complex stability constant, Kstab/Kstab1 (unresolved or first migrating enantiomer)” value is 640 ± 145 M⁻¹; the “MDPV–CD complex stability constant, Kstab2 (second migrating enantiomer)” value is 430 ± 50 M⁻¹; the “MDPV–CD complex stability constant, Kstab/Kstab1 (unresolved or first migrating enantiomer)” value is 105 ± 15 M⁻¹. Also, the “Mephedrone–CD complex stability constant, Kstab/Kstab1 (unresolved or first migrating enantiomer)” value was found to be 115 ± 20 M⁻¹.

Values taken from article PMC10893103, “Cyclodextrin-Enabled Enantioselective Complexation Study of Cathinone Analogs” (Molecules, 2024).
